Patent publication US20160256504A1, “[…] COMPOSITION CONTAINING […] MUSHROOM [[…] EDODES] […] CULTURE AND NATTO BACTERIA [BACILLUS SUBTILIS NATTO] CULTURE” (HK Biotech Co., LTD., priority 2014, published 2016)

What was measured:
[1] = test system: blood homocysteine; settings: rats, hyperhomocysteinemia induced by guanidinoacetic acid injection, EA injected; cited from earlier work
[2] = test system: plasma plasminogen activator inhibitor-1 (PAI-1); assay: Plasma PAI-1 content in SHR after 4-week treatment; type: in vivo, rat
[3] = test system: NO; assay: NO content in NAME-induced hypertensive rat model; type: in vivo; settings: NAME-induced hypertensive rats
Protocol: (§1) The biochemical markers relating to the blood pressure were measured, by collecting blood and organs of the rats used in the experimental examples 1 (non-genetic NAME-induced hypertension) and 3 (4-week-treatments on SHR). […] And from the rats of the experimental example 3, ACE activity and the activity of plasma plasminogen activator inhibitor-1 (PAI-1) of the plasma and the livers were measured. […] The following TABLE 5 is describing NO content and NOS activity of shiitake mushroom mycelium culture and natto bacteria culture mixture in the NAME-induced hypertensive rat model.

[4] = test system: NOS; assay: NOS activity in NAME-induced hypertensive rat model; type: in vivo; settings: NAME-induced hypertensive rats
Protocol: as §1

In the case of `Nc1ncnc2c1ncn2C[C@@H](O)[C@@H](O)C(=O)O` [EA, eritadenine], the blood homocysteine [1] is listed as “reduced”.

For `C[C@H](CS)C(=O)N1CCC[C@H]1C(=O)O` [CP, captopril], the “Plasma PAI-1” value ([2]; 0 week) was 113 pg/mL and the “Plasma PAI-1” value ([2]; 4 weeks) was 127 pg/mL.

In the case of `NNc1nncc2ccccc12` [hydralazine], the “NO Lung” value ([3]; 0 week) is reported as 10 nM/ml, the “NO Lung” value ([3]; 4 weeks) is reported as 7 nM/ml and the “NO Plasma” value ([3]; 0 week) is reported as 21 nM/ml. The “NO Plasma” value ([3]; 4 weeks) was 20 nM/ml, the “NOS Aorta” value ([4]; 0 week) was 0.80 NO pmle/mg protein/min and the “NOS Aorta” value ([4]; 4 weeks) was 1.08 NO pmle/mg protein/min. For the same molecule, the “NOS Plasma” value ([4]; 0 week) was 6.0 NO umole/L and the “NOS Plasma” value ([4]; 4 weeks) was 8.5 NO umole/L.
